Counter-ions that a name gives are not always drawn.
| SMILES | melting point [°C] |
| --- | --- |
| O=C(NC1CCC(c2cc(Nc3cccc(C(F)(F)F)c3)n[nH]2)C1)c1ccccn1 (centres unmarked) (as salt: HCl) [Example 31, Pyridine-2-carboxylic acid {3-[5-(3-trifluoromethyl-phenylamino)-2H-pyrazol-3-yl]-cyclopentyl}-amide] | 180.1 |
| O=C(NC1CCC(c2cc(Nc3cccc(C(F)(F)F)c3)n[nH]2)C1)C1CCC1 (centres unmarked) (as salt: HCl) [Example 33, Cyclobutanecarboxylic acid {3-[5-(3-trifluoromethyl-phenylamino)-2H-pyrazol-3-yl]-cyclopentyl}-amide] | 232.4 |
| CC(C)(C)C(=O)NC1CCC(c2cc(Nc3cccc(C(F)(F)F)c3)n[nH]2)C1 (centres unmarked) (as salt: HCl) [Example 34, 2,2-Dimethyl-N-{3-[5-(3-trifluoromethyl-phenylamino)-2H-pyrazol-3-yl]-cyclopentyl}-propionamide] | 249.2 |
| COc1cccc(C(=O)N[C@H]2C[C@@H](c3cc(NC(=O)Cc4cccc5ccccc45)n[nH]3)C2)c1 (as salt: HCl) [Example 44, 3-Methoxy-N-{cis-3-[5-(2-naphthalen-1-yl-acetylamino)-2H-pyrazol-3-yl]-cyclobutyl}-benzamide] | 124.8 |
| O=C(Cc1cccc2ccccc12)Nc1cc([C@H]2C[C@@H](NC(=O)c3cccc(C(F)(F)F)c3)C2)[nH]n1 (as salt: HCl) [Example 45, N-{cis-3-[5-(2-Naphthalen-1-yl-acetylamino)-2H-pyrazol-3-yl]-cyclobutyl}-3-trifluoromethyl-benzamide] | 142.8 |
| CC(C)C(=O)N[C@H]1C[C@@H](c2cc(NC(=O)Cc3cccc4ccccc34)n[nH]2)C1 (as salt: HCl) [Example 46, N-{cis-3-[5-(2-Naphthalen-1-yl-acetylamino)-2H-pyrazol-3-yl]-cyclobutyl}-isobutyramide] | 130.6 |
| O=C(Cc1cccc2ccccc12)Nc1cc([C@H]2C[C@@H](NC(=O)C3CC3c3ccccc3)C2)[nH]n1 (stereo partly drawn) (as salt: HCl) [Example 47, 2-Phenyl-cyclopropanecarboxylic acid {cis-3-[5-(2-naphthalen-1-yl-acetylamino)-2H-pyrazol-3-yl]-cyclobutyl}-amide] | 139.8 |
| CC(=O)N[C@H]1C[C@@H](c2cc(NC(=O)Cc3cccc4ccccc34)n[nH]2)C1 (as salt: HCl) [Example 48, N-[5-(cis-3-Acetylamino-cyclobutyl)-1H-pyrazol-3-yl]-2-naphthalen-1-yl-acetamide] | 209.4 |
| O=C(Cc1cccc2ccccc12)Nc1cc([C@H]2C[C@@H](NC(=O)c3ccccc3)C2)[nH]n1 (as salt: HCl) [Example 49, N-{cis-3-[5-(2-Naphthalen-1-yl-acetylamino)-2H-pyrazol-3-yl]-cyclobutyl}-benzamide] | 194 |
| O=C(Cc1cccc2ccccc12)Nc1cc([C@H]2C[C@@H](NC(=O)CC3CC3)C2)[nH]n1 (as salt: HCl) [Example 50, 2-Cyclopropyl-N-{cis-3-[5-(2-naphthalen-1-yl-acetylamino)-2H-pyrazol-3-yl]-cyclobutyl}-acetamide] | 93.2 |
| O=C(Cc1cccc2ccccc12)Nc1cc([C@H]2C[C@@H](NC(=O)c3ccc4ccccc4n3)C2)[nH]n1 (as salt: HCl) [Example 52, Quinoline-2-carboxylic acid {cis-3-[5-(2-naphthalen-1-yl-acetylamino)-2H-pyrazol-3-yl]-cyclobutyl}-amide] | 200.3 |
| COc1ccc(C(=O)N[C@H]2C[C@@H](c3cc(NC(=O)Cc4cccc5ccccc45)n[nH]3)C2)cc1 (as salt: HCl) [Example 54, 4-Methoxy-N-{cis-3-[5-(2-naphthalen-1-yl-acetylamino)-2H-pyrazol-3-yl]-cyclobutyl}-benzamide] | 175.6 |
| O=C(Cc1cccc2ccccc12)Nc1cc([C@H]2C[C@@H](NC(=O)c3cccc([N+](=O)[O-])c3)C2)[nH]n1 (as salt: HCl) [Example 55, N-{cis-3-[5-(2-Naphthalen-1-yl-acetylamino)-2H-pyrazol-3-yl]-cyclobutyl}-3-nitro-benzamide] | 123.5 |
| O=C(Cc1cccc2ccccc12)Nc1cc([C@H]2C[C@@H](Oc3nc4ccccc4o3)C2)[nH]n1 (as salt: HCl) [Example 63, N-{5-[cis-3-(Benzooxazol-2-yloxy)-cyclobutyl]-1H-pyrazol-3-yl}-2-naphthalen-1-yl-acetamide] | 142 |

From patent publication US20020103185A1, “Pyrazole derivatives” (priority 2000, published 2002)
